From patent publication US5716950A, “Diazacycloalkanealkylsulfonamide derivatives” (Nippon Shoji Kabushiki Kaisha, priority 1994, dated 1998)

Each compound was assayed on passive cutaneous anaphylaxis (PCA) (assay: Activity of suppressing passive cutaneous anaphylaxis (PCA)). Details: Rattus norvegicus, po, 1 h, 10 mg/kg-po, 1 hour before antigen challenge; read-out: % suppression of rat PCA.
Type: in vivo, Male Wistar rats
Description: Test compounds were examined on their antiallergic activities. […] After 48 hours, 1.0 ml of 0.5 % Evans Blue saline solution containing DNP.BSA (1 mg in protein) was injected through the tail vein to induce allergic reaction. After 30 minutes, the rats were sacrificed by bleeding and the skin of back where dye was leaked out was flayed and put it into 20 ml test tube with ground stopper. Thereto was added 1.0 ml of 1N KOH aqueous solution and then it was allowed to stand at 37° C. in incubator overnight for lysing. To this solution was added 8.3 ml of a mixture of acetone and 0.6N phosphoric acid (13:5) and the mixture was mixed well and then was filtered to remove the insoluble materials.
The test compounds were administered orally 1 hour before the antigen challenge. Suppression rate was expressed by percentage to the value in control where 0.5% aqueous methylcellulose solution was orally administered.

| Compound | inhibition in vivo at 10 mg/kg [%] |
| --- | --- |
| CCNS(=O)(=O)CCCCCCN1CCN(C(c2ccccc2)c2ccc(Cl)cc2)CC1 (stereo not shown) [Example 29] | 95.7 |
| CCNS(=O)(=O)CCCCCN1CCN(C(c2ccc(F)cc2)c2ccccn2)CC1 (stereo not shown) [Example 31] | 87.2 |
| CCNS(=O)(=O)CCCCCCN1CCN(C(c2ccc(F)cc2)c2ccccn2)CC1 (stereo not shown) [Example 32] | 86.8 |
| CCCNS(=O)(=O)CCCCCCN1CCN(C(c2ccc(F)cc2)c2ccccn2)CC1 (stereo not shown) [Example 39] | 83.8 |
| CCCNS(=O)(=O)CCCCCCCCCCN1CCN(C(c2ccc(F)cc2)c2ccccn2)CC1 (stereo not shown) [Example 42] | 80.2 |
| CC(C)NS(=O)(=O)CCCCCCN1CCN(C(c2ccccc2)c2ccc(Cl)cc2)CC1 (stereo not shown) [Example 43] | 86.5 |
| CC(C)NS(=O)(=O)CCCCCN1CCN(C(c2ccc(F)cc2)c2ccccn2)CC1 (stereo not shown) [Example 45] | 84 |
| CC(C)NS(=O)(=O)CCCCCCCCN1CCN(C(c2ccc(F)cc2)c2ccccn2)CC1 (stereo not shown) [Example 48] | 83.8 |
| O=S(=O)(CCCCCCN1CCN(C(c2ccccc2)c2ccc(Cl)cc2)CC1)NC1CC1 (stereo not shown) [Example 54] | 89.2 |
| O=S(=O)(CCCCCCN1CCN(C(c2ccc(F)cc2)c2ccccn2)CC1)NC1CC1 (stereo not shown) [Example 56] | 94.5 |
| O=S(=O)(CCCCCCN1CCN(C(c2ccccc2)c2ccc(Cl)cc2)CC1)NC1CCCC1 (stereo not shown) [Example 59] | 96.4 |
| O=S(=O)(CCCCCCN1CCN(C(c2ccc(F)cc2)c2ccccn2)CC1)NC1CCCC1 (stereo not shown) [Example 61] | 89.7 |
| CN(C)S(=O)(=O)CCCCCCN1CCN(C(c2ccccc2)c2ccc(Cl)cc2)CC1 (stereo not shown) [Example 64] | 72.5 |
| CN(C)S(=O)(=O)CCCCCCN1CCN(C(c2ccc(F)cc2)c2ccc(F)cc2)CC1 [Example 65] | 74.7 |
| CN(C)S(=O)(=O)CCCCCCN1CCN(C(c2ccncc2)c2ccc(Cl)cc2)CC1 (stereo not shown) [Example 66] | 82.8 |

The compounds below were run on extracted ileum (histamine contraction) (assay: Antihistaminic activity: suppression of histamine-induced contraction of extracted ileum). Details: histamine 3×10^-7 M; guinea pig ileum; 50% suppression of contraction; read-out: anti-His in extracted ileum EC50.
Design: species or system Female Hartley guinea pig
Description: Female Hartley guinea pig (weighing 500 to 650 g) were sacrificed and the ileum (length of about 10 to 25 cm) was extracted from the ileocecum to prepare a specimen (length of 3 cm). […] After allowing to stand for 60 minutes to make the specimen stable, a histamine (3×10^-7 M) was applied to the specimen at single application. Contraction of the specimen was determined and recorded using isotonic transducer. After repeating application of a histamine to make the contraction constant, a diluted solution of the test compound was applied. Three minutes after the application, a histamine was then added and an activity of suppressing contraction was examined.

| Compound | EC50 [nM] |
| --- | --- |
| CCNS(=O)(=O)CCCCCCN1CCN(C(c2ccccc2)c2ccc(Cl)cc2)CC1 (stereo not shown) [Example 29] | 750 |
| CCNS(=O)(=O)CCCCCN1CCN(C(c2ccc(F)cc2)c2ccccn2)CC1 (stereo not shown) [Example 31] | 770 |
| CCNS(=O)(=O)CCCCCCN1CCN(C(c2ccc(F)cc2)c2ccccn2)CC1 (stereo not shown) [Example 32] | 840 |
| CCCNS(=O)(=O)CCCCCCN1CCN(C(c2ccc(F)cc2)c2ccccn2)CC1 (stereo not shown) [Example 39] | 810 |
| CCCNS(=O)(=O)CCCCCCCCCCN1CCN(C(c2ccc(F)cc2)c2ccccn2)CC1 (stereo not shown) [Example 42] | 330 |
| CC(C)NS(=O)(=O)CCCCCCN1CCN(C(c2ccccc2)c2ccc(Cl)cc2)CC1 (stereo not shown) [Example 43] | 690 |
| CC(C)NS(=O)(=O)CCCCCN1CCN(C(c2ccc(F)cc2)c2ccccn2)CC1 (stereo not shown) [Example 45] | 740 |
| CC(C)NS(=O)(=O)CCCCCCCCN1CCN(C(c2ccc(F)cc2)c2ccccn2)CC1 (stereo not shown) [Example 48] | 350 |
| O=S(=O)(CCCCCCN1CCN(C(c2ccccc2)c2ccc(Cl)cc2)CC1)NC1CC1 (stereo not shown) [Example 54] | 420 |
| O=S(=O)(CCCCCCN1CCN(C(c2ccc(F)cc2)c2ccccn2)CC1)NC1CC1 (stereo not shown) [Example 56] | 440 |
| O=S(=O)(CCCCCCN1CCN(C(c2ccccc2)c2ccc(Cl)cc2)CC1)NC1CCCC1 (stereo not shown) [Example 59] | 2900 |
| O=S(=O)(CCCCCCN1CCN(C(c2ccc(F)cc2)c2ccccn2)CC1)NC1CCCC1 (stereo not shown) [Example 61] | 310 |
| CN(C)S(=O)(=O)CCCCCCN1CCN(C(c2ccccc2)c2ccc(Cl)cc2)CC1 (stereo not shown) [Example 64] | 360 |
| CN(C)S(=O)(=O)CCCCCCN1CCN(C(c2ccc(F)cc2)c2ccc(F)cc2)CC1 [Example 65] | 430 |
| CN(C)S(=O)(=O)CCCCCCN1CCN(C(c2ccncc2)c2ccc(Cl)cc2)CC1 (stereo not shown) [Example 66] | 420 |

Each compound was assayed on male ICR mice (assay: Toxicity Test (mouse acute toxicity, minimum lethal dose)). Details: po, observed for 24 hours, head prints (10 mg/kg-po).
Type: in vivo
Source text: The test compounds were orally administered to male ICR mice (weighing to 30 g) after fasting overnight. […] The results were expressed by minimum lethal dose. Toxicity of any compounds of the present invention were weaker than that of ketotifen which was a reference compound.

| Compound | mouse acute toxicity (lethal dose) [mg/kg] |
| --- | --- |
| CCNS(=O)(=O)CCCCCCN1CCN(C(c2ccccc2)c2ccc(Cl)cc2)CC1 (stereo not shown) [Example 29] | > 500 |
| CCNS(=O)(=O)CCCCCN1CCN(C(c2ccc(F)cc2)c2ccccn2)CC1 (stereo not shown) [Example 31] | > 500 |
| CCNS(=O)(=O)CCCCCCN1CCN(C(c2ccc(F)cc2)c2ccccn2)CC1 (stereo not shown) [Example 32] | > 500 |
| CCCNS(=O)(=O)CCCCCCN1CCN(C(c2ccc(F)cc2)c2ccccn2)CC1 (stereo not shown) [Example 39] | > 500 |
| CCCNS(=O)(=O)CCCCCCCCCCN1CCN(C(c2ccc(F)cc2)c2ccccn2)CC1 (stereo not shown) [Example 42] | > 500 |
| CC(C)NS(=O)(=O)CCCCCCN1CCN(C(c2ccccc2)c2ccc(Cl)cc2)CC1 (stereo not shown) [Example 43] | > 500 |
| CC(C)NS(=O)(=O)CCCCCN1CCN(C(c2ccc(F)cc2)c2ccccn2)CC1 (stereo not shown) [Example 45] | > 500 |
| CC(C)NS(=O)(=O)CCCCCCCCN1CCN(C(c2ccc(F)cc2)c2ccccn2)CC1 (stereo not shown) [Example 48] | > 500 |
| O=S(=O)(CCCCCCN1CCN(C(c2ccccc2)c2ccc(Cl)cc2)CC1)NC1CC1 (stereo not shown) [Example 54] | > 500 |
| O=S(=O)(CCCCCCN1CCN(C(c2ccc(F)cc2)c2ccccn2)CC1)NC1CC1 (stereo not shown) [Example 56] | > 500 |
| O=S(=O)(CCCCCCN1CCN(C(c2ccccc2)c2ccc(Cl)cc2)CC1)NC1CCCC1 (stereo not shown) [Example 59] | > 500 |
| O=S(=O)(CCCCCCN1CCN(C(c2ccc(F)cc2)c2ccccn2)CC1)NC1CCCC1 (stereo not shown) [Example 61] | > 500 |
| CN(C)S(=O)(=O)CCCCCCN1CCN(C(c2ccccc2)c2ccc(Cl)cc2)CC1 (stereo not shown) [Example 64] | > 500 |
| CN(C)S(=O)(=O)CCCCCCN1CCN(C(c2ccc(F)cc2)c2ccc(F)cc2)CC1 [Example 65] | > 500 |
| CN(C)S(=O)(=O)CCCCCCN1CCN(C(c2ccncc2)c2ccc(Cl)cc2)CC1 (stereo not shown) [Example 66] | > 500 |

Each compound was assayed on mouse biphasic allergic dermal reaction (assay: Mouse Biphasic Allergic Dermal Reaction). Details: Mus musculus, 1 h; 0.1 mg/kg, oral; read-out: immediate edema (1 hr) suppression (%).
Type: in vivo, Female Balb/c mice
Description: Female Balb/c mice (weighing 18 to 25 g) were subjected to passive sensitization by intravenous administration of 1 ml of anti-DNP monoclonal IgE antibody showing 1:1024 of antibody titer. 24 hours after the sensitization, 25 μl of 0.15% dinitrofluorobenzene (DNFB) were applied to both sides of right and left auricles of mouse for inducing allergic reactions. Thickness of auricles were measured using Dial Thickness Gauge before the challenge with DNFB, and 1 and 24 hours after the challenge. And then, increase in thickness of auricles at 1 hour after the challenge (edema caused by immediate allergic reaction) and that at 24 hours after the challenge (edema caused by late allergic reaction) were calculated against the thickness of auricles before the challenge with DNFB, respectively.
Suppression rate was expressed by relative ratio (%) to the value in control in which a solvent was administered.
Test compounds, diphenhydramine which is a existing classical antihistamic drug, amlexanox which is an antiallergic drug and dexamethasone which is a steroidal drug were administered orally (partly intraperitoneally) once before antigen challenge.
The above test was performed by using a mouse biphasic allergic dermal reaction model which was a new model [see, Sakurai T, Inagaki, N. and Nagai, H Life Sci., 54, PL291-295 (1994)]. In this model, the immediate allergic reaction was induced by mediator release from mast cell at 1 hour after the challenge, and the late allergic reaction with inflammatory cells such as eosinophil (edema after 24 hours) was induced after 24 hours from the challenge.

| Compound | inhibition in vivo at 0.1 mg/kg [%] |
| --- | --- |
| O=S(=O)(CCCCCCN1CCN(C(c2ccccc2)c2ccc(Cl)cc2)CC1)NC1CC1 (stereo not shown) [Example 54] | 19 |
| O=S(=O)(CCCCCCN1CCN(C(c2ccc(F)cc2)c2ccccn2)CC1)NC1CCCC1 (stereo not shown) [Example 61] | 5 |

Same assay, conditions: Mus musculus, 1 h; 1.0 mg/kg, oral; read-out: immediate edema (1 hr) suppression (%)

| Compound | inhibition in vivo at 1 mg/kg [%] |
| --- | --- |
| O=S(=O)(CCCCCCN1CCN(C(c2ccccc2)c2ccc(Cl)cc2)CC1)NC1CC1 (stereo not shown) [Example 54] | 52.4 |
| O=S(=O)(CCCCCCN1CCN(C(c2ccc(F)cc2)c2ccccn2)CC1)NC1CC1 (stereo not shown) [Example 56] | 15.8 |

Same assay, conditions: Mus musculus, 24 h; 0.1 mg/kg, oral; read-out: late edema (24 hr) suppression (%)

| Compound | inhibition in vivo at 0.1 mg/kg [%] |
| --- | --- |
| O=S(=O)(CCCCCCN1CCN(C(c2ccccc2)c2ccc(Cl)cc2)CC1)NC1CC1 (stereo not shown) [Example 54] | 37 |
| O=S(=O)(CCCCCCN1CCN(C(c2ccc(F)cc2)c2ccccn2)CC1)NC1CC1 (stereo not shown) [Example 56] | 3.8 |
| O=S(=O)(CCCCCCN1CCN(C(c2ccc(F)cc2)c2ccccn2)CC1)NC1CCCC1 (stereo not shown) [Example 61] | 37 |

Same assay, conditions: Mus musculus, 24 h; 1.0 mg/kg, oral; read-out: late edema (24 hr) suppression (%)

| Compound | inhibition in vivo at 1 mg/kg [%] |
| --- | --- |
| O=S(=O)(CCCCCCN1CCN(C(c2ccccc2)c2ccc(Cl)cc2)CC1)NC1CC1 (stereo not shown) [Example 54] | 51.9 |
| O=S(=O)(CCCCCCN1CCN(C(c2ccc(F)cc2)c2ccccn2)CC1)NC1CC1 (stereo not shown) [Example 56] | 34.6 |
| O=S(=O)(CCCCCCN1CCN(C(c2ccc(F)cc2)c2ccccn2)CC1)NC1CCCC1 (stereo not shown) [Example 61] | 44.4 |

Same assay, conditions: edema after 24 hours

| Compound | suppression of the late allergic reaction (in words) |
| --- | --- |
| O=S(=O)(CCCCCCN1CCN(C(c2ccccc2)c2ccc(Cl)cc2)CC1)NC1CC1 (stereo not shown) [Example 54] | showed strong activity of suppressing the late allergic reaction |
| O=S(=O)(CCCCCCN1CCN(C(c2ccc(F)cc2)c2ccccn2)CC1)NC1CC1 (stereo not shown) [Example 56] | showed strong activity of suppressing the late allergic reaction |
| O=S(=O)(CCCCCCN1CCN(C(c2ccc(F)cc2)c2ccccn2)CC1)NC1CCCC1 (stereo not shown) [Example 61] | showed strong activity of suppressing the late allergic reaction |
